Test results as given in patent US6703506B2, “Amino acid ester containing azole antifungals” (Janssen Pharmaceutica, N.V., priority 1997, dated 2004).

How the values were obtained:
[1] = Chemical stability (open glass jar, 40° C., 75% relative humidity); assay type: physicochemical; details: 50 mg, after one week
Procedure: After one week, the amount of test compound remaining was determined.

Aspergillus fumigatus [2] = test: Determination of fungal susceptibility (MIC); assay type: cell-based; details: CYG medium, 5 days at 30° C., growth to 35% of control or less
Procedure: (§1) A panel of Candida isolates plus single isolates of the dermatophytes Microsporum canis, Trichophyton rubrum and T. mentagrophytes; Aspergillus fumigates, and Cryptococcus neoformans were used to evaluate the activity of the test compounds in vitro. Inocula were prepared as broth cultures (yeasts) or as suspensions of fungal material made from agar slope cultures (moulds). The test compounds were pipetted from DMSO stock solution into water to provide a series of 10-fold dilutions. The fungal inocula were suspended in the growth medium CYG (F. C. Odds, Journal of Clinical Microbiology, 29, (2735-2740, 1991) at approximately 50,000 colony-forming units (CFU) per ml and added to the aqueous test drugs. The cultures were set up in the 96 wells of plastic microdilution plates and they were incubated for 2 days at 37° C. (Candida spp.) or for 5 days at 30° C. (other fungi). Growth in the microcultures was measured by their optical density (OD) measured at a wavelength of 405 nm. The OD for cultures with test compounds was calculated as a percentage of the control, drug-free OD. Inhibition of growth to 35% of control or less was recorded as significant inhibition.
(§2) Minimal inhibitory concentration (MICs; in 10^−6 M) of intermediate 2 as the major metabolite and some of the compounds of formula (I) for Candida glabrata, Candida krusel, Candida parapsilosis, Candida albicans, Candida kefyr, Candida tropicalis, Microsporum canis, Trichophyton rubrum, Trichophyton mentagrophytes, Cryptococcus neoformans, Aspergillus fumigatus are listed in table 8.

Candida albicans [3] = test: Determination of fungal susceptibility (MIC); assay type: cell-based; details: CYG medium, 2 days at 37° C., growth to 35% of control or less
Procedure: as §1, §2

Candida glabrata = test: Determination of fungal susceptibility (MIC); assay type: cell-based; details: CYG medium, 2 days at 37° C., growth to 35% of control or less
Procedure: as §1, §2

Candida kefyr = test: Determination of fungal susceptibility (MIC); assay type: cell-based; details: CYG medium, 2 days at 37° C., growth to 35% of control or less
Procedure: as §1, §2

Candida krusei = test: Determination of fungal susceptibility (MIC); assay type: cell-based; details: CYG medium, 2 days at 37° C., growth to 35% of control or less
Procedure: as §1, §2

Candida parapsilosis = test: Determination of fungal susceptibility (MIC); assay type: cell-based; details: CYG medium, 2 days at 37° C., growth to 35% of control or less
Procedure: as §1, §2

Candida tropicalis = test: Determination of fungal susceptibility (MIC); assay type: cell-based; details: CYG medium, 2 days at 37° C., growth to 35% of control or less
Procedure: as §1, §2

Cryptococcus neoformans = test: Determination of fungal susceptibility (MIC); assay type: cell-based; details: CYG medium, 5 days at 30° C., growth to 35% of control or less
Procedure: as §1, §2

Microsporum canis = test: Determination of fungal susceptibility (MIC); assay type: cell-based; details: CYG medium, 5 days at 30° C., growth to 35% of control or less
Procedure: as §1, §2

[4] = system: Trichophyton mentagrophytes; test: Determination of fungal susceptibility (MIC); assay type: cell-based; details: CYG medium, 5 days at 30° C., growth to 35% of control or less
Procedure: as §1, §2

Trichophyton rubrum = test: Determination of fungal susceptibility (MIC); assay type: cell-based; details: CYG medium, 5 days at 30° C., growth to 35% of control or less
Procedure: as §1, §2

Aspergillus fumigatus [5] = test: Disseminated aspergillosis in guinea-pigs; assay type: in vivo; details: for CFU/g (liver): culture-positive livers post mortem; for % neg (total percentage culture-negative deep tissues): liver, spleen, kidney, lung and brain
Procedure: (§3) Specific pathogen-free (SPF) guinea-pigs (weighing 400-500 g) were used in all experiments. A catheter was placed into the left jugular vein of the animals that were treated by intravenous infusion, the vein was ligated, and the catheter was connected to a microprocessor-controlled infusion pump. The animals were infected with Aspergillus fumigatus (4,000 CFU/g body weight) or with Candida albicans (40,000 CFU/g body weight) either via the lateral vein of the penis or via the implanted catheter. Intravenous treatments (5 mg/kg/day) began 1 hour after infection. The test formulations were then administered on subsequent days as two, 1 hour infusions daily, separated by a period of 5 hours, for a total of 19 infusions or 9.5 days. Oral treatments with the test compounds (5 mg/kg/day) begun 1 hour after infection and were repeated twice daily up to the tenth day after infection (a total of 19 treatments. For each group of tested animals (number of tested animals per group given in column “N”), the mean survival time (MST) in days was recorded as well as the % survivors (% surv). Animals of each group which died during the experiment and those that survived the experiment and were killed, were investigated for counts of Aspergillus fumigatus and Candida albicans in deep tissue (liver, spleen, kidney, lung and brain) post mortem. The remaining CFU/g in the culture-positive livers was measured and expressed in table 9 (after intravenous treatment) and table 10 (after oral treatment) as mean log10 CFU/g. The columns “%neg” in tables 9 and 10 express the total percentage culture-negative deep tissues after the treatment.

Candida albicans [6] = test: Disseminated candidosis in guinea-pigs; assay type: in vivo; details: for CFU/g (liver): culture-positive livers post mortem; for % neg (total percentage culture-negative deep tissues): liver, spleen, kidney, lung and brain
Procedure: as §3

[7] = i.v. treatment 5 mg/kg/day, 19 infusions, 9.5 days
[8] = oral treatment 5 mg/kg/day, twice daily, 19 treatments

| Compound | Stability (amount of test compound remaining) [1] | MIC (Aspergillus fumigatus [2]) | MIC (Candida albicans [3]) | MIC (Candida glabrata) | MIC (Candida kefyr) | MIC (Candida krusei) | MIC (Candida parapsilosis) | MIC (Candida tropicalis) | MIC (Cryptococcus neoformans) | MIC (Microsporum canis) | MIC [4] | MIC (Trichophyton rubrum) | CFU/g (liver) (Aspergillus fumigatus [5]; i.v. treatment 5 mg/kg/day) | CFU/g (liver) (Aspergillus fumigatus [5]; oral treatment 5 mg/kg/day) | % surv (% survivors) (Aspergillus fumigatus [5]; [7]) | MST (mean survival time) (Aspergillus fumigatus [5]; [7]) | % neg (total percentage culture-negative deep tissues) (Aspergillus fumigatus [5]; i.v. treatment 5 mg/kg/day) | % neg (total percentage culture-negative deep tissues) (Aspergillus fumigatus [5]; oral treatment 5 mg/kg/day) | % surv (% survivors) (Aspergillus fumigatus [5]; [8]) | MST (mean survival time) (Aspergillus fumigatus [5]; [8]) | also measured |
| --- | --- | --- | --- | --- | --- | --- | --- | --- | --- | --- | --- | --- | --- | --- | --- | --- | --- | --- | --- | --- | --- |
| C[C@H](OC(=O)CCN)[C@H](C)n1ncn(-c2ccc(N3CCN(c4ccc(OC[C@@H]5CO[C@@](Cn6cncn6)(c6ccc(F)cc6F)O5)cc4)CC3)cc2)c1=O.O.O=C(O)C[C@H](O)C(=O)O.O=C(O)C[C@H](O)C(=O)O (relative stereo) [Compound 12, [2S-[2α,4α-[(R*,R*)]]]-2-[4-[4-[4-[4-[[2-(2,4-difluorophenyl)-2-(1H-1,2,4-triazol-1-ylmethyl)-1,3-dioxolan-4-yl]methoxy]phenyl]-1-piperazinyl]phenyl]-4,5-dihydro-5-oxo-1H-1,2,4-triazol-1-yl]-1-methylpropyl β-alanine (S)-hydroxybutanedioate(1:2) monohydrate] | 96.1% |  |  |  |  |  |  |  |  |  |  |  |  |  |  |  |  |  |  |  |  |
| CC(N)C(=O)OC(C)C(C)n1ncn(-c2ccc(N3CCN(c4ccc(OCC5COC(Cn6cncn6)(c6ccc(F)cc6F)O5)cc4)CC3)cc2)c1=O.O.O=C(O)CCC(=O)O (stereo not drawn) [Compound 10] | 31.0% |  |  |  |  |  |  |  |  |  |  |  |  |  |  |  |  |  |  |  |  |
| CC(OC(=O)CCN)C(C)n1ncn(-c2ccc(N3CCN(c4ccc(OCC5COC(Cn6cncn6)(c6ccc(F)cc6F)O5)cc4)CC3)cc2)c1=O.O.O=C(O)C(=O)O (stereo not drawn) [Compound 13] | 98.3% |  |  |  |  |  |  |  |  |  |  |  |  |  |  |  |  |  |  |  |  |
| CCN(CC)CCC(=O)OC(C)C(C)n1ncn(-c2ccc(N3CCN(c4ccc(OCC5COC(Cn6cncn6)(c6ccc(F)cc6F)O5)cc4)CC3)cc2)c1=O.O.O=C(O)C=CC(=O)O (stereo not drawn) [Compound 15] | 90.4% |  |  |  |  |  |  |  |  |  |  |  |  |  |  |  |  |  |  |  |  |
| CCN(CC)CC(=O)OC(C)C(C)n1ncn(-c2ccc(N3CCN(c4ccc(OCC5COC(Cn6cncn6)(c6ccc(F)cc6F)O5)cc4)CC3)cc2)c1=O.O=C(O)C=CC(=O)O (stereo not drawn) [Compound 16, [2S-[2α,4α-[(R*,R*)]]]-2-[4-[4-[4-[4-[[2-(2,4-difluorophenyl)-2-(1H-1,2,4-triazol-1-ylmethyl)-1,3-dioxolan-4-yl]methoxy]phenyl]-1-piperazinyl]phenyl]-4,5-dihydro-5-oxo-1H-1,2,4-triazol-1-yl]-1-methylpropyl N,N-diethylglycine (E)-2-butenedioate] | 100.3% | 1 10^−6 M | <0.1 10^−6 M | 10 10^−6 M | <0.1 10^−6 M | 1 10^−6 M | <0.1 10^−6 M | <0.1 10^−6 M | 1 10^−6 M | 1 10^−6 M | 1 10^−6 M | <0.1 10^−6 M | 3.4 mean log10 CFU/g | 3.1 mean log10 CFU/g | 16.7% | 6.8 days | 29% | 48% | 40% | 6.5 days | CFU/g (liver) (Candida albicans [6]; i.v. treatment 5 mg/kg/day): 0 mean log10 CFU/g; CFU/g (liver) (Candida albicans [6]; oral treatment 5 mg/kg/day): 0 mean log10 CFU/g; % surv (% survivors) (Candida albicans [6]; [7]): 66.7%; MST (mean survival time) (Candida albicans [6]; [7]): 9.3 days; % neg (total percentage culture-negative deep tissues) (Candida albicans [6]; i.v. treatment 5 mg/kg/day): 79%; % neg (total percentage culture-negative deep tissues) (Candida albicans [6]; oral treatment 5 mg/kg/day): 73%; % surv (% survivors) (Candida albicans [6]; [8]): 90%; MST (mean survival time) (Candida albicans [6]; [8]): 9.6 days |
| CC(C)C(N)C(=O)OC(C)C(C)n1ncn(-c2ccc(N3CCN(c4ccc(OCC5COC(Cn6cncn6)(c6ccc(F)cc6F)O5)cc4)CC3)cc2)c1=O (stereo not drawn) [Compound 18] | 101.7% | 1 10^−6 M | <0.1 10^−6 M | 10 10^−6 M | <0.1 10^−6 M | 1 10^−6 M | <0.1 10^−6 M | <0.1 10^−6 M | 1 10^−6 M | 10 10^−6 M | 1 10^−6 M | 10 10^−6 M | 3.1 mean log10 CFU/g | 3.2 mean log10 CFU/g | 16.7% | 5.3 days | 29% | 20% | 0% | 5.2 days | CFU/g (liver) (Candida albicans [6]; i.v. treatment 5 mg/kg/day): 0 mean log10 CFU/g; CFU/g (liver) (Candida albicans [6]; oral treatment 5 mg/kg/day): 0 mean log10 CFU/g; % surv (% survivors) (Candida albicans [6]; [7]): 66.7%; MST (mean survival time) (Candida albicans [6]; [7]): 9.2 days; % neg (total percentage culture-negative deep tissues) (Candida albicans [6]; i.v. treatment 5 mg/kg/day): 92%; % neg (total percentage culture-negative deep tissues) (Candida albicans [6]; oral treatment 5 mg/kg/day): 68%; % surv (% survivors) (Candida albicans [6]; [8]): 100%; MST (mean survival time) (Candida albicans [6]; [8]): 10 days |
| CC(C)CC(N)C(=O)OC(C)C(C)n1ncn(-c2ccc(N3CCN(c4ccc(OCC5COC(Cn6cncn6)(c6ccc(F)cc6F)O5)cc4)CC3)cc2)c1=O (stereo not drawn) [Compound 21] | 100.3% | 1 10^−6 M | 0.1 10^−6 M | 10 10^−6 M | 0.1 10^−6 M | 1 10^−6 M | 0.1 10^−6 M | 0.1 10^−6 M | 1 10^−6 M | 1 10^−6 M | 1 10^−6 M | <0.1 10^−6 M | 3.7 mean log10 CFU/g | 3.0 mean log10 CFU/g | 0% | 5.7 days | 46% | 55% | 40% | 7.0 days | CFU/g (liver) (Candida albicans [6]; i.v. treatment 5 mg/kg/day): 2.7 mean log10 CFU/g; CFU/g (liver) (Candida albicans [6]; oral treatment 5 mg/kg/day): 0 mean log10 CFU/g; % surv (% survivors) (Candida albicans [6]; [7]): 16.7%; MST (mean survival time) (Candida albicans [6]; [7]): 6.5 days; % neg (total percentage culture-negative deep tissues) (Candida albicans [6]; i.v. treatment 5 mg/kg/day): 75%; % neg (total percentage culture-negative deep tissues) (Candida albicans [6]; oral treatment 5 mg/kg/day): 83%; % surv (% survivors) (Candida albicans [6]; [8]): 90%; MST (mean survival time) (Candida albicans [6]; [8]): 9.6 days |
| [2S-[2α,4α[(R*,R*)]]]-4-[4-[4-[4-[[2-(2,4-difluorophenyl)-2-(1H-1,2,4-triazol-1-ylmethyl)-1,3-dioxolan-4-yl]methoxy]-phenyl]-1-piperazinyl]phenyl]-2,4-dihydro-2-(2-hydroxy-1-methylpropyl)-3H-1,2,4-triazol-3-one [Interm. 2a] |  | 1 10^−6 M | 10 10^−6 M | 10 10^−6 M | <0.1 10^−6 M | 1 10^−6 M | 1 10^−6 M | 1 10^−6 M | 1 10^−6 M | 1 10^−6 M | 1 10^−6 M | 1 10^−6 M |  |  |  |  |  |  |  |  |  |
